Calls of active or inactive are those of the source. The rule behind the calls is not given here.
Legend:
[1] = Inhibition of alpha-glucosidase
[2] = Inhibition of alpha-galactosidase
Note: test concentration or dose not given here.

Structure (SMILES) | Activity [1] | Activity [2]
O=S(=O)(c1cccc(C(F)(F)F)c1)N1CCN(c2nc(-c3cccs3)nc3ccccc23)CC1 | inactive | inactive
CC1(C)CCc2cc(S(=O)(=O)N3CCN(c4nc(-c5cccs5)nc5ccccc45)CC3)ccc2O1 | inactive | inactive
O=S(=O)(c1cnc2ccccc2c1)N1CCN(c2nc(-c3cccs3)nc3ccccc23)CC1 | inactive | inactive
O=S(=O)(c1ccc(Cl)cc1)N1CCN(c2nc(-c3cccs3)nc3ccccc23)CC1 | inactive | inactive
Cc1ccc(S(=O)(=O)N2CCN(c3nc(-c4ccc(CN5CCNCC5)s4)nc4ccccc34)CC2)cc1 | inactive | inactive
O=[N+]([O-])c1cccc(S(=O)(=O)N2CCN(c3nc(-c4ccccc4)nc4ccccc34)CC2)c1 | inactive | inactive
O=S(=O)(c1cccc(Br)c1)N1CCN(c2nc(-c3cccs3)nc3ccccc23)CC1 | inactive | inactive
Cc1ccc(S(=O)(=O)N2CCN(c3nc(-c4cccs4)nc4cccnc34)CC2)cc1 | inactive | inactive
Cc1ccc(S(=O)(=O)N2CCN(c3nc(-c4cccs4)nc(C)c3C)CC2)cc1 | inactive | inactive
O=S(=O)(/C=C/c1ccccc1)N1CCN(c2nc(-c3cccnc3)nc3ccccc23)CC1 | inactive | inactive
Cc1cccc(S(=O)(=O)N2CCN(c3nc(-c4cccs4)nc4ccccc34)CC2)c1 | inactive | inactive
CC(C)S(=O)(=O)N1CCN(c2nc(-c3cccs3)nc3ccccc23)CC1 | inactive | inactive
Cc1ccc(S(=O)(=O)N2CCN(c3nc(-c4ncco4)nc4ccccc34)CC2)cc1 | inactive | inactive
O=S(=O)(c1ccc2c(Cl)cccc2c1)N1CCN(c2nc(-c3cccs3)nc3ccccc23)CC1 | inactive | inactive
O=S(=O)(c1cccc(C(F)(F)F)c1)N1CCN(c2nc(-c3ccccc3)nc3ccccc23)CC1 | inactive | inactive
O=[N+]([O-])c1ccc(S(=O)(=O)N2CCN(c3nc(-c4ccccc4)nc4ccccc34)CC2)cc1 | inactive | inactive
O=S(=O)(c1ccc(OC(F)(F)F)cc1)N1CCN(c2nc(-c3ccccc3)nc3ccccc23)CC1 | inactive | inactive
Cc1ccc(S(=O)(=O)N2CCN(c3nc(-c4cncs4)nc4ccccc34)CC2)cc1 | inactive | inactive
COc1cccc(S(=O)(=O)N2CCN(c3nc(-c4cccs4)nc4ccccc34)CC2)c1 | inactive | inactive
N#Cc1ccccc1S(=O)(=O)N1CCN(c2nc(-c3cccs3)nc3ccccc23)CC1 | inactive | inactive
O=S(=O)(c1cccc(Cl)c1)N1CCN(c2nc(-c3cccs3)nc3ccccc23)CC1 | inactive | inactive
O=S(=O)(c1ccc2ncsc2c1)N1CCN(c2nc(-c3cccs3)nc3ccccc23)CC1 | inactive | inactive
O=S(=O)(c1ccccc1F)N1CCN(c2nc(-c3cccs3)nc3ccccc23)CC1 | inactive | inactive
Cc1ccc(S(=O)(=O)N2CCN(c3nc(-c4ccoc4)nc4ccccc34)CC2)cc1 | inactive | inactive
COc1ccc(N2CCN(c3nc(-c4cccs4)nc4ccccc34)CC2)cc1 | inactive | inactive
O=S(=O)(c1ccc(Br)cc1)N1CCN(c2nc(-c3cccs3)nc3ccccc23)CC1 | inactive | inactive
Cc1ccc(S(=O)(=O)N2CCN(c3nc(-c4ccncc4)nc4ccccc34)CC2)cc1 | inactive | inactive

— ChEMBL document CHEMBL1671789, “Evaluation of quinazoline analogues as glucocerebrosidase inhibitors with chaperone activity” (J Med Chem, 2011)
